Test results: patent US12352763B2, “Method of determining autophagosome flux and uses thereof” (Stellenbosch University, priority 2016, dated 2025)

What was measured:
[1] = tested on: MEF cells; experiment: Autophagosome flux assay: live-cell z-stack fluorescence imaging of GFP-LC3 / LysoTracker Red cells, with fusion blocked by 400 nM bafilomycin A1; type: cell-based, mouse
Description: For the autophagosomal pool size analysis, the autophagosomes and the lysosomes were visualized and labelled specifically. The autophagolysosomal entities were identified by co-localization analysis. Stably transfected green fluorescent protein-LC3 (GFP-LC3) cells were treated with the lysosome-labelling marker, LysoTracker® Red (Life Technologies, #L-7528) in order to visualize the autophagosomes, the lysosomes and the autophagolysosomes. MEF cells were seeded onto a sterile cover-slip patterned with large fibronectin discs (CYTOO, #10-003-10) in a CYTOO chamber single well plate. Cells were seeded at a density of 2×10^4 cells and incubated for 30 minutes. Thereafter, the chamber was rinsed several times using DMEM until all adherent cells in the non-patterned regions were washed off. The cells were maintained for 2 hours prior to the experiment in DMEM, containing 75 nM LysoTracker Red, in a humidified atmosphere in the presence of 5% CO2 at […]. The chamber plate was then enclosed in an Olympus IX-81 stage of an inverted fluorescence microscope in the presence of 5% CO2 for the duration of the experiment. Serum starvation was avoided, since it would upregulate autophagosome flux and mask the cell-inherent basal autophagosome flux.
Z-stack image acquisition was performed in order to acquire the complete autophagosomal pool size. An Olympus IX-81 coupled to an MT-20 and xenon burner 150 W and an F-view camera were employed. Temperature and 5% CO2 were controlled. For live cell acquisition, single cell acquisition was performed using automated stage coordinate settings. CellR-based software (Olympus, Soft Imaging) was employed. Images were processed using Cell R imaging software and exported to the modified (for high throughput) automated counting software (ImageJ with WatershedCounting3D plug in (Gniadek et al., 2007)), to count the green and red puncta using voxel dimension 0.08 for both x and y as the search parameters. Puncta count and morphometric analysis were performed using the Watershed Counting3D plugin of ImageJ. Images were converted to RGB colour format and processed by WatershedCounting3D. Puncta count and surface area were determined for each colour puncta from the output file generated. Equations 1, 2 and 3 described above were used to determine the radius, volume and total surface area of spheres.
In order to assess the basal autophagosome flux in steady state, cells were treated with 400 nM bafilomycin A1 (FIG. 4). The autophagosomal pool size was monitored for two hours post-inhibition and images were acquired at 30 minute intervals. The basal flux, Jbasal, was determined by allowing the autophagic system to reach a steady state under basal conditions (basal flux is the initial slope of the progress curve at the point of inhibition of fusion). Multiple cells (n=10) were assessed simultaneously using a stage control. The transition time, τ, was calculated from the ratio τ=nA/J of the autophagosome pool size and autophagosome flux, and indicated the turnover time of the autophagosome pool at steady state.
The autophagosome flux J, the autophagosomal pool size nA, and the autophagosomal transition time τ were determined (FIG. 6 and Table 1).

[2] = tested on: mouse embryonic fibroblast (MEF) cells; experiment: Determining complete fusion inhibition: saturating inhibitor concentration, Western blot; type: cell-based
Description: FIG. 2 is a Western blot analysis and corresponding graphs illustrating the results of the study to determine the saturating inhibitor concentration of bafilomycin A1 required to fully block autophagosomal/lysosomal fusion.
This saturating concentration should be determined prior to performing the method. […] Although this can be performed through Western blot analysis, a more precise technique is to determine the change over time of the autophagosome pool size after inhibition of fusion using the method of the present invention (FIG. 2). Thus, the change in pool size before and shortly after inhibition of fusion is determined and the rate of change (typically expressed over 1 hour) is calculated.
Bafilomycin A1 was selected as the inhibitor in this example because it is the most commonly used drug in the field.

[3] = tested on: LC3, p62 and pmTOR; experiment: Western blot analysis probing for LC3, p62 and pmTOR (validation); type: cell-based; conditions: treatment with bafilomycin
Description: FIG. 8 is a Western blot analysis probing for LC3, p62 and pmTOR. […] This method, however, cannot measure dynamic changes and vesicular pool size required to measure autophagosome flux. […] Western blot analysis and TEM was performed in the presence and absence of bafilomycin A1. […] Therefore, autophagosome flux cannot be accurately assessed. It allows the detection of the respective protein, LC3 II, from a whole cell population, without linking the protein band signal to single cell pool sizes of entities. Moreover, the nature of Western blot analysis omits any measurements of dynamic changes (FIG. 8).

[4] = 25 nM rapamycin versus basal, increase

Structure (SMILES)	Transition time, % change (% Δ) ([1]; 25 nM rapamycin versus basal, decrease) [%]	Autophagosome Pool size nA, % change (% Δ) [1, 4] [%]	Autophagosome flux J, % change (% Δ) [1, 4] [%]	Autophagolysosomal transition time, τAL ([1]; induced with rapamycin) [h]	Autophagosomal membrane flux, Jmem ([1]; induced with rapamycin) [μm^2/hr/cell]	Cytoplasmic volume consumption rate, Jvol ([1]; induced with rapamycin) [fL/hr/cell]	Autophagosome flux, J ([1]; induced with rapamycin (25 nM)) [A/hr/cell]	Average volume of an autophagosome ([1]; induced with rapamycin (25 nM)) [fL]	Number of autophagolysosomes, nAL ([1]; induced with rapamycin (25 nM)) [AL/cell]	Number of autophagosomes, nA ([1]; induced with rapamycin (25 nM)) [A/cell]	Autophagosomal transition time, τA ([1]; induced with rapamycin, τ=nA/J) [h]	Autophagosome Pool size nA ([1]; modulator rapamycin (Table 2))	Autophagosome flux, J ([1]; modulator rapamycin (Table 2))	Transition time ([1]; modulator rapamycin (Table 2)) [h]	Autophagosome Pool size nA, net change (Δ) ([1]; rapamycin versus basal)	Autophagosome flux J, net change (Δ) ([1]; rapamycin versus basal)	Transition time, net change (Δ) ([1]; rapamycin versus basal, decrease) [h]	Inhibition of autophagosomal-lysosomal fusion ([2]; 400 nM for 2 hours)	Cell toxicity ([2]; concentration of 800 nM)	LC3II and p62 bands [3]
CO[C@H]1C[C@@H]2CC[C@@H](C)[C@@](O)(O2)C(=O)C(=O)N2CCCC[C@H]2C(=O)O[C@H]([C@H](C)C[C@@H]2CC[C@@H](O)[C@H](OC)C2)CC(=O)[C@H](C)/C=C(\C)[C@@H](O)[C@@H](OC)C(=O)[C@H](C)C[C@H](C)/C=C/C=C/C=C/1C [rapamycin]	69.8	22.4	315	2.4	8268	495	105.4	4.7	251.2	16.7	0.16	16.4 No. of autophagosomes	105.4 No. of autophagosomes/cell*hr^1	0.16	3 No. of autophagosomes	80 No. of autophagosomes/cell*hr^1	0.37	–	–	–
CO/C1=C\C(C)=C\[C@@H](C)[C@@H](O)[C@@H](C)C/C(C)=C/C=C/[C@H](OC)[C@@H]([C@@H](C)[C@@H](O)[C@H](C)[C@@]2(O)C[C@@H](O)[C@H](C)[C@@H](C(C)C)O2)OC1=O [Bafilomycin A1]	–	–	–	–	–	–	–	–	–	–	–	–	–	–	–	–	–	complete inhibition	cell toxicity was observed	increases
